Experimental data reported in US20090291938A1 (TAKEDA PHARMACEUTICAL COMPANY LIMITED, priority 2007, published 2009).

tested on: HT29 human colorectal adenocarcinoma cell line; experiment: cell proliferation assay (Cell Titer-Glo luminescent cell viability assay); type: cell-based; settings: HT-29, cell proliferative assay, HT29 cells, 72 hr treatment, values given as ranges, read-out: pIC50 (converted)
Procedure: The cell culture and proliferation assay may be carried out as follows: the HT29 human colorectal adenocarcinoma cell line (ATCC, USA) was maintained in Dulbecco's Modified Eagle's Medium (Invitrogen, USA) supplemented with 10% fetal bovine serum (JRH, USA). The cell proliferation assay was carried out with the Cell Titer-Glo luminescent cell viability assay (Promega, USA) according to the manufacture's instruction after the 72 hr treatment of the cells in the presence of the compounds. The cell viability was shown as a percentage of DMSO treated cells.

| SMILES | IC50 [nM] |
| --- | --- |
| COc1cc(C(=O)N[C@H]2CCN(C)C2)ccc1Nc1ncc2c(n1)N(C1CCCC1)CC(C)(C)C(=O)N2C [Compound 97, (S)-4-(9-cyclopentyl-5,7,7-trimethyl-6-oxo-6,7,8,9-tetrahydro-5H-pyrimido[4,5-b][1,4]diazepin-2-ylamino)-3-methoxy-N-(1-methylpyrrolidin-3-yl)benzamide] | 1 to 2.51 |
| COc1cc(C(=O)N[C@@H]2CCCN(C)C2)ccc1Nc1ncc2c(n1)N(C1CCCC1)CC(C)(C)C(=O)N2C [Compound 98, (R)-4-(9-cyclopentyl-5,7,7-trimethyl-6-oxo-6,7,8,9-tetrahydro-5H-pyrimido[4,5-b][1,4]diazepin-2-ylamino)-3-methoxy-N-(1-methylpiperidin-3-yl)benzamide] | 1 to 2.51 |
| COc1cc(C(=O)N[C@H]2CCCN(C)C2)ccc1Nc1ncc2c(n1)N(C1CCCC1)CC(C)(C)C(=O)N2C [Compound 99, (S)-4-(9-cyclopentyl-5,7,7-trimethyl-6-oxo-6,7,8,9-tetrahydro-5H-pyrimido[4,5-b][1,4]diazepin-2-ylamino)-3-methoxy-N-(1-methylpiperidin-3-yl)benzamide] | < 1 |
| COc1cc(C(=O)N[C@@H]2CCCNC2)ccc1Nc1ncc2c(n1)N(C1CCCC1)CC(C)(C)C(=O)N2C [Compound 100, (R)-4-(9-cyclopentyl-5,7,7-trimethyl-6-oxo-6,7,8,9-tetrahydro-5H-pyrimido[4,5-b][1,4]diazepin-2-ylamino)-3-methoxy-N-(piperidin-3-yl)benzamide] | 3.16 to 10 |
| COc1cc(C(=O)N[C@H]2CCCNC2)ccc1Nc1ncc2c(n1)N(C1CCCC1)CC(C)(C)C(=O)N2C [Compound 101, (S)-4-(9-cyclopentyl-5,7,7-trimethyl-6-oxo-6,7,8,9-tetrahydro-5H-pyrimido[4,5-b][1,4]diazepin-2-ylamino)-3-methoxy-N-(piperidin-3-yl)benzamide] | 1 to 2.51 |
| CONC(=O)c1ccc(Nc2ncc3c(n2)N(C2CCCC2)CC(C)(C)C(=O)N3C)c(OC)c1 [Compound 102, 4-(9-cyclopentyl-5,7,7-trimethyl-6-oxo-6,7,8,9-tetrahydro-5H-pyrimido[4,5-b][1,4]diazepin-2-ylamino)-N,3-dimethoxybenzamide] | < 1 |
| COc1cc(C(=O)N[C@H]2CC[C@H](O)CC2)ccc1Nc1ncc2c(n1)N(C1CCCC1)CC(C)(C)C(=O)N2C [Compound 103, 4-(9-cyclopentyl-5,7,7-trimethyl-6-oxo-6,7,8,9-tetrahydro-5H-pyrimido[4,5-b][1,4]diazepin-2-ylamino)-N-((1R,4R)-4-hydroxycyclohexyl)-3-methoxybenzamide] | 1 to 2.51 |
| COc1cc(C(=O)NN2CCOCC2)ccc1Nc1ncc2c(n1)N(C1CCCC1)CC(C)(C)C(=O)N2C [Compound 104, 4-(9-cyclopentyl-5,7,7-trimethyl-6-oxo-6,7,8,9-tetrahydro-5H-pyrimido[4,5-b][1,4]diazepin-2-ylamino)-3-methoxy-N-morpholinobenzamide] | < 1 |
| COc1cc(C(=O)NN2CCN(CCO)CC2)ccc1Nc1ncc2c(n1)N(C1CCCC1)CC(C)(C)C(=O)N2C [Compound 105, 4-(9-cyclopentyl-5,7,7-trimethyl-6-oxo-6,7,8,9-tetrahydro-5H-pyrimido[4,5-b][1,4]diazepin-2-ylamino)-N-(4-(2-hydroxyethyl)piperazin-1-yl)-3-methoxybenzamide] | 1 to 2.51 |
| COc1cc(C(=O)NN2CCN(C)CC2)ccc1Nc1ncc2c(n1)N(C1CCCC1)CC(C)(C)C(=O)N2C [Compound 106, 4-(9-cyclopentyl-5,7,7-trimethyl-6-oxo-6,7,8,9-tetrahydro-5H-pyrimido[4,5-b][1,4]diazepin-2-ylamino)-3-methoxy-N-(4-methylpiperazin-1-yl)benzamide] | < 1 |
| COc1cc(C(N)=O)ccc1Nc1ncc2c(n1)N(C1CCCC1)CC(C)(C)C(=O)N2C [Compound 107, 4-(9-cyclopentyl-5,7,7-trimethyl-6-oxo-6,7,8,9-tetrahydro-5H-pyrimido[4,5-b][1,4]diazepin-2-ylamino)-3-methoxybenzamide] | 3.16 to 10 |
